PMC5683375, “Vasculotide reduces pulmonary hyperpermeability in experimental pneumococcal pneumonia” (Critical Care, 2017)
pKd: −log10 of the molar value. “Also recorded” adds a separate entry of the source. Read-outs that look alike come from different tables or passages of the source.

How the values were obtained:
[1] = tested on: acute skin ionizing radiation in mice; settings: cited from earlier work
mouse lungs = test: Isolated perfused and ventilated mouse lung, PLY-induced permeability (ex vivo); parameters: species or system mouse (C57BL/6 N); settings: VT 50 or 100 ng/ml, 15 minutes before PLY 1.4 μg/ml, BAL 30 minutes after PLY, HSA 0.04% in perfusate, n = 6-8
Protocol: Mouse lungs were prepared as described previously. Briefly, anesthetized mice were tracheotomized and ventilated. After sternotomy and cannulation of the left atrium and pulmonary artery, lungs were perfused with 37 °C sterile Krebs-Henseleit hydroxyethyl-amylopectin buffer (1 ml/minute) and ventilated by negative pressure (Pexp −4.5, Pins −9.0 cmH2O) in a humidified chamber. After a 20-minute steady state, continuous infusion of VT (50 or 100 ng/ml) or PBS was commenced. Five minutes later, human serum albumin (HSA) was admixed to the perfusate (0.04%) for permeability quantification. Ten minutes thereafter, 1.4 μg/ml PLY was infused into the pulmonary artery for 1 minute. Bronchoalveolar lavage (BAL) was performed 30 minutes after PLY application, and HSA concentration was measured in bronchoalveolar fluid (BALF).

[2] = tested on: mice with influenza pneumonia; settings: cited from earlier work
hPMVEC = tested on: hPMVEC; parameters: method as in PMID 21421750; settings: cited from earlier work
Tie2 = tested on: Tie2; parameters: method as in PMID 18939935, PMID 21421750, PMID 22040774, PMID 26046800, PMID 25159192; settings: other cell types/tissues; cited from earlier work
[3] = tested on: human pulmonary microvascular endothelial cells (hPMVEC); test: Immunofluorescence staining (VE-cadherin, actin) of human pulmonary microvascular endothelial cells; format: cell-based; settings: VT 300 ng/ml
Protocol: Human pulmonary microvascular endothelial cells (hPMVEC; PromoCell, Heidelberg, Germany), used at passages 4–6, were grown to confluence on glass slides, incubated with VT (300 ng/ml) or sterile PBS as a control for 90 minutes and then stimulated with LPS (0.1 μg/ml) from Escherichia coli (Sigma-Aldrich, Steinheim, Germany), PLY (0.25, 0.5, 0.75 μg/ml), or PBS. After 30 minutes, cells were fixed in 3% formalin, and the […] vascular endothelial (VE)-cadherin (1:400, goat antihuman VE-cadherin; Santa Cruz Biotechnology, Santa Cruz, CA, USA; secondary antibody 1:8000, Alexa Fluor 488 F(ab′)2 rabbit antigoat IgG (H + L), Invitrogen, Darmstadt, Germany) and actin fibers (1:2000; phalloidin Alexa 546-labeled; Invitrogen) were stained to evaluate cell morphology. 4′,6-diamidino-2-phenylindole staining (Sigma-Aldrich) was used to visualize cell nuclei. The immunofluorescence of the cells was analyzed by confocal microscopy using an LSM 780 microscope with ZEN 2011 software (objective: Plan Apochromat × 63/1.40 oil; Carl Zeiss Microscopy, Jena, Germany).

mouse Tie2Fc receptor = target: T1, mouse Tie2Fc receptor (Mus musculus, UniProt Q02858); test: Tryptophan fluorescence spectroscopy, saturation binding of VT to mouse Tie2Fc
T1 construct: Fc (immunoglobulin Fc fusion partner); purchased R&D Systems
Protocol: Binding studies were carried out in 96 well plates (Brand-plates pureGrade reference 781607; BRAND GMBH + CO KG, Wertheim, Germany). Mouse Tie2Fc receptor and human immunoglobulin G (IgG) Fc were obtained from R&D Systems (Minneapolis, MN, USA). Dilutions were prepared in HyClone™ Dulbecco’s PBS (GE Healthcare Life Sciences, Mississauga, ON, Canada). The saturation binding curve was prepared with all ligand dilutions and receptors as 2× concentrations. Equal volumes of ligand and receptor were added to generate a final 1× concentration (500 nM Tie2Fc final concentration). Spectroscopic studies were performed on a SpectraMax M2 fluorometer (Molecular Devices, Sunnyvale, CA, USA). Measurements were taken at an excitation wavelength of 295 nm. Emission scans were set from 360 to 450 nm.
Saturation binding data (Fig. 1a–c) are presented as mean ± SEM and were calculated using normalized one-site specific binding and nonlinear regression. For the Tie2 phosphorylation analysis (Fig. 1d), one-way analysis of variance (with Dunnett’s post hoc multiple comparisons test) was used to compare treatment groups with the vehicle-treated group. All other experimental data are expressed as mean, mean + SEM, or mean ± SEM. Groups were compared using the Mann-Whitney U test followed by the Bonferroni-Holm correction, where indicated. p Values < 0.05 were considered significant. Analyses were performed using Prism version 6.00 software (GraphPad Software, La Jolla, CA, USA).

abdominal sepsis = tested on: abdominal sepsis; parameters: method as in 3 sources, ref 26 = [26]; PMID 22040774; doi:10.1186/cc10523; 26. Kümpers P Gueler F David S Slyke PV Dumont DJ Park JK Bockmeyer CL Parikh SM Pavenstadt H Haller H The synthetic Tie2 agonist peptide Vasculotide protects against vascular leakage and reduces mort ||| ref 25, 26 = [25]; PMID 21421750; doi:10.1152/ajplung.00459.2010; 25. David S Ghosh CC Kumpers P Shushakova N Van Slyke P Khankin EV Karumanchi SA Dumont D Parikh SM Effects of a synthetic PEG-ylated Tie-2 agonist peptide on endotoxemic lung injury and mortality Am || [26]; PMID 22040774; doi:10.1186/cc10523; 26. Kümpers P Gueler F David S Slyke PV Dumont DJ Park JK Bockmeyer CL Parikh SM Pavenstadt H Haller H The synthetic Tie2 agonist peptide Vasculotide protects against vascular leakage and reduces mort ||| ref 26 (Kümpers et al.); settings: cited from earlier work
[4] = tested on: Streptococcus pneumoniae-infected mice; test: BALF leukocyte recruitment (FACS) in Streptococcus pneumoniae-infected mice; settings: VT 500 ng i.v., 24 h and 48 h p.i., n = 8
Protocol: For all experiments, female C57BL/6 N mice (8 to 10 weeks old, weighing 18 to 20 g; Charles River Laboratories, Sulzfeld, Germany) were used. Animals were housed under specific pathogen-free conditions under a 12–h/12-h light/dark cycle with free access to food and water.
Mice were anesthetized with ketamine (80 mg/kg) and xylazine (25 mg/kg) and transnasally inoculated with 5 × 10^6 colony-forming units (CFU) of S. pneumoniae (NCTC7978) in 20 μl of sterile PBS as described before [35]. Sham-infected control mice received 20 μl of sterile PBS. After 22 h, 34 h, and 46 h, body weight and rectal temperature were measured, and different dosages of VT (100, 200, or 500 ng in 100 μl of PBS) or PBS were intravenously injected into the tail vein. Twenty-four or forty-eight hours postinfection (p.i.), mice were anesthetized (160 mg/kg ketamine and 75 mg/kg xylazine) and exsanguinated. […] Subsequently, lungs were flushed, and BAL was performed. To determine permeability, HSA (1 mg/75 μl) was intravenously infused 1 h before lung preparation, and the BALF/plasma ratio was calculated as described elsewhere [35]. […] Cytokines from BALF were measured with a multiplex assay (ProcartaPlex; eBioscience), and plasma levels of interleukin (IL)-6 (BD Biosciences) and KC (keratinocyte chemoattractant; R&D Systems) were quantified by ELISA.

S. pneumoniae = test: Bacterial burden in BALF and blood of Streptococcus pneumoniae-infected mice; settings: VT 500 ng i.v., 24 h and 48 h p.i., n = 8
Protocol: Mice were anesthetized with ketamine (80 mg/kg) and xylazine (25 mg/kg) and transnasally inoculated with 5 × 10^6 colony-forming units (CFU) of S. pneumoniae (NCTC7978) in 20 μl of sterile PBS as described before [35]. Sham-infected control mice received 20 μl of sterile PBS. After 22 h, 34 h, and 46 h, body weight and rectal temperature were measured, and different dosages of VT (100, 200, or 500 ng in 100 μl of PBS) or PBS were intravenously injected into the tail vein. Twenty-four or forty-eight hours postinfection (p.i.), mice were anesthetized (160 mg/kg ketamine and 75 mg/kg xylazine) and exsanguinated. […] Subsequently, lungs were flushed, and BAL was performed.
S. pneumoniae (S. pn.) infected mice (5x106
CFU/mouse) were intravenously (i.v.) treated with Vasculotide (VT; 500 ng) or PBS 22 h, 34
h and 46 h post infection (p.i.). The bacterial burden was quantified in bronchoalveolar lavage
fluid (BALF) and in blood 24 h or 48 h p.i.

[5] = tested on: murine lung endothelial cells (mLEC); test: Transcellular electrical resistance (ECIS) of murine lung endothelial cells; settings: VT 2, 10, 50 ng/ml, 30 minutes pretreatment; PLY 0.75 μg/ml, 3 h; n = 4-7
Protocol: Briefly, mice were killed by an overdose of ketamine/xylazine. Lungs of four mice were pooled, minced, and digested by dispase (20 ml, 5 U/ml; BD Biosciences, Heidelberg, Germany) and DNase (20 ml, 0.5 mg/ml; AppliChem GmbH, Darmstadt, Germany). The homogenate was filtered, collected by centrifugation (300 × g), and washed twice, and the resulting cell suspension was incubated with antimouse VE-cadherin antibody (rat antimouse CD 144; BD Pharmingen, San Diego, CA, USA)-coated magnetic beads (sheep antirat IgG DynaBeads; Invitrogen GmbH, Karlsruhe, Germany) for positive isolation with the DynaMag-Spin magnet system (Invitrogen). The isolated cells were resuspended in Endothelial Cell Growth Medium MV2 (PromoCell), seeded onto fibronectin-coated (Sigma-Aldrich) culture dishes (diameter 35 mm), and grown to a confluent monolayer in 3–4 days. Then, cells were split after trypsinization [37], seeded and grown to confluence on fibronectin-coated evaporated gold microelectrodes (eight-well array with ten electrodes per well; ibidi GmbH, Martinsried, Germany) connected to an electric cell-substrate impedance sensing (ECIS) system (Applied Biophysics, Troy, NY, USA) [38] for continuous monitoring of transcellular electrical resistance (TER). Cells were pretreated with VT (2, 10, and 50 ng/ml) or PBS for 30 minutes and then stimulated with PLY (0.75 μg/ml) or PBS for 3 h.

T1 sequence (Q02858 with tags, fused parts or gaps limits assumed): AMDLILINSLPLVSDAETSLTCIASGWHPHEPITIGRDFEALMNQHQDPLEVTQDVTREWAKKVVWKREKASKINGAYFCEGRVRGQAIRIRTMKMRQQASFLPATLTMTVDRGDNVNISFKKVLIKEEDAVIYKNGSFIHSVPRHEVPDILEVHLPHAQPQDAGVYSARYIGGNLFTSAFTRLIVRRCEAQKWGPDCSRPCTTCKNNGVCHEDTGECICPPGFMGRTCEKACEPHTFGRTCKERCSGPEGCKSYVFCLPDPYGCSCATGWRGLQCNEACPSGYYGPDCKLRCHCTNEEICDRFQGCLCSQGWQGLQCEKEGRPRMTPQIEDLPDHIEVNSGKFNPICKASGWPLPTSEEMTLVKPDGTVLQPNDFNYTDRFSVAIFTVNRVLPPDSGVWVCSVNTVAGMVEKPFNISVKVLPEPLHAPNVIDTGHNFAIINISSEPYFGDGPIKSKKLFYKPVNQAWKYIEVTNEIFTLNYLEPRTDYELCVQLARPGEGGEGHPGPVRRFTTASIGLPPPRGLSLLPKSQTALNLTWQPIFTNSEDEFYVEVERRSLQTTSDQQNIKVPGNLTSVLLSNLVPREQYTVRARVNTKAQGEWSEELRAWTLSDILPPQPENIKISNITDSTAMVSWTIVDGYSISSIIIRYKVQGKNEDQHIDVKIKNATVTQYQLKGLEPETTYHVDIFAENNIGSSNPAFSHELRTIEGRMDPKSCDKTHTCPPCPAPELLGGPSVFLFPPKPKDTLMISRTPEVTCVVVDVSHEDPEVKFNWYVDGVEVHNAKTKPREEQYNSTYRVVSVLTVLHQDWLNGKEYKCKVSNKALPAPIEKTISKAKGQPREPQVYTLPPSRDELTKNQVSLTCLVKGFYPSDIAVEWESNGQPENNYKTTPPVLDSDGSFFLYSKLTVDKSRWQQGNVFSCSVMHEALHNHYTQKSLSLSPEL

In the case of Vasculotide [VT], the “acute skin ionizing radiation” value [1] is listed as “protective effect”, the “PLY-induced lung hyperpermeability (HSA in BALF)” value (mouse lungs) is listed as “decreased PLY-induced pulmonary permeability; also recorded: significantly decreased hyperpermeability of mouse lungs; also recorded: dose-dependently decreased hyperpermeability of mouse lungs” and the “survival of mice with influenza pneumonia” value [2] is listed as “increase the survival”. The “leukocyte influx into the lung in influenza pneumonia” value ([2]; ref 28 (Sugiyama et al.)) was “without affecting leukocyte influx into the lung”, the “pulmonary barrier function in influenza pneumonia” value ([2]; ref 28 (Sugiyama et al.)) was “protective effect of VT on pulmonary barrier function” and the “virus replication in influenza pneumonia” value ([2]; ref 28 (Sugiyama et al.)) was “without affecting leukocyte influx into the lung or repressing virus replication”. The “protection of endothelial cells from LPS-induced disruption” value (hPMVEC) was “protects hPMVEC after LPS stimulation; also recorded: protect endothelial cells from lipopolysaccharide (LPS)-induced disruption”, the Tie2 phosphorylation (Tie2) was “confirms findings of other studies” and the “monolayer stabilization (gap formation, stress fibers, cell loss) after LPS or PLY” value ([3]; 90 minutes pretreatment, LPS 0.1 μg/ml or PLY 0.25, 0.5, 0.75 μg/ml for 30 minutes, three independent experiments) was “stabilized cell monolayers, protected from gap formation, and reduced stress fibers as well as cell loss; also recorded: stabilized the cell monolayer, avoided gap formation, and reduced stress fibers and cell loss from culture dishes”. For the same substance, the “effect on unstimulated hPMVEC monolayer” value ([3]; 90 minutes, no LPS or PLY) was “no effect of VT pretreatment was observed; also recorded: intact monolayers with tight intercellular contacts and thin actin fibers”, the “saturability of fluorescence intensity with mouse Tie2Fc” value (mouse Tie2Fc receptor; 500 nM Tie2Fc) was “saturable” and the “intrinsic fluorescence intensity / binding with mouse Tie2Fc” value (mouse Tie2Fc receptor; 500 nM Tie2Fc, excitation 295 nm) was “dose-dependent binding; also recorded: dose-dependent increase in intrinsic fluorescence intensity”. The pKd (mouse Tie2Fc receptor; 95% confidence interval, 500 nM Tie2Fc, one-site specific binding, read-out: 95% CI of the dissociation constant, mouse Tie2Fc) was 7.17 to 8.53, the “dissociation constant, in words” value (mouse Tie2Fc receptor; murine Tie2 receptor, discussion) was “in the low nanomolar range” and the pKd (mouse Tie2Fc receptor; tryptophan fluorescence, excitation 295 nm, emission 360-450 nm, 500 nM Tie2Fc, PBS, normalized one-site specific binding, nonlinear regression, read-out: dissociation constant of the normalized specific binding of VT to mouse Tie2Fc) was 7.46. For the same substance, the “protective effect in murine endotoxemia and abdominal sepsis (sepsis part)” value (abdominal sepsis; abdominal sepsis) was “protective effect”, the “barrier disruption in experimental sepsis” value (abdominal sepsis) was “diminish barrier disruption” and the “local and systemic inflammatory markers after abdominal sepsis” value (abdominal sepsis; treatment started 2 h after cecal ligation and puncture, ref 26 (Kümpers et al.)) was “reductions in local and systemic inflammatory markers”. For the same substance, the “pulmonary leukocyte recruitment (BALF)” value [4] was “did not significantly reduce; also recorded: not significantly affected; also recorded: not significantly reduced”, the “bacterial burden in BALF” value (S. pneumoniae; BALF) was “did not affect; also recorded: not significantly reduced” and the “bacterial burden in blood” value (S. pneumoniae; blood) was “did not affect; also recorded: not significantly reduced”. For the same substance, the “PLY-induced TER decrease” value [5] was “attenuated the PLY-induced TER decrease in a dose-dependent manner”.
